# Source: EP0472573B1, “HERBICIDE RESISTANT MAIZE” (ZENECA LIMITED, priority 1989, dated 1990)
# Biological target: ALS enzyme extracted from Mutant 6 (heterozygous)
# Assay: ALS enzyme assay, heterozygous Mutant 6
# Format: biochemical, Zea mays
# Conditions: ALS of heterozygous Mutant 6; read-out: ID50% (the source's name)
# Protocol: (§1) Seeds of generation M₁BC₁ M₁BC₂ of the nine mutants were sprayed pre-emergence with the herbicide imazethapyr (PURSUIT) (Trade Mark) at a rate of 250 g/ha and grown in a growth chamber (16 hour day, 27°C; 8 hour night, 17°C). Plants were harvested after 11 days.
# (§2) Four grams of leaf material were harvested from just above the first leaf axis and ground in a mortar and pestle in 20ml of a solution containing 40mM Tricine (Trade Mark), 10mM EDTA, 5mM pyruvate, 80 »M flavin adenine dinucleotide (FAD), 1mM dithiothreitol (DTT), pH 8, plus 0.8g Polyclar AT. The homogenate was pressed through four layers of muslin and centrifuged at 30,000g for 20 minutes.
# (§3) The supernatant was brought to 65% saturation with ammonium sulphate, left to precipitate for 30 minutes and then centrifuged at 30.000g for 20 minutes. The pellet was resuspended in 2.5ml of 40mM Tricine, 10mM EDTA, 5mM pyruvate, 80»M FAD, 25% (v/v) glycerol, 1mM DTT, pH 8, and desalted into 3.5ml of 40mM Tricine, 10mM EDTA, 25% (v/v) glycerol, 1mM DTT, pH 8.
# (§4) One hundred microlitres of the enzyme extract was used for each assay. Final reagent concentrations were: 120mM Tricine, 50mM pyruvate, 10mM MgCl₂, […], 93»M thiamine pyrophosphate (TPP), pH 8, in the presence or absence of a herbicide of interest, in a volume of 750 »l. Incubations were carried out at 37°C for 30 minutes. Reactions were stopped with 250»l of 1.84M sulphuric acid, and decarboxylation of the acetolactate carried out at 37°C for 75 minutes, or at 60°C for 30 minutes. Assay blanks had sulphuric acid added prior to the enzyme extract. To the samples and blanks 650»l of α-naphthol in 2.73M NaOH/0.16%(w/v) creatine were added followed by incubation at 37°C for 30 minutes. After centrifugation at 30,000g the optical density of the supernatant was read at 540nm.
# (§5) The assay procedure described was carried out on ALS enzyme extracted from each of the nine mutants for the following herbicides: imazethapyr (PURSUIT) imazapyr (ARSENAL) imazaquin (SCEPTER) chlorsulfuron (GLEAN) chlorimuron (CLASSIC) […] (HARMONY) The enzyme activity graphs are given as Figures 3 to 8. In addition, homozygous lines of mutants 1 and 2 which were selected from generation M₁BC₁S₂, were also tested against the same group of herbicides and against representatives of the triazolopyrimidines and phenoxypyrimidines. The chemical structures of these herbicides are shown in Figure 2 of the accompanying drawings.
# (§6) From the enzyme assay data it is possible to derive, as a measure of the degree of inhibition the factor ID50% for each mutant and for each herbicide. This factor is indicative of the herbicide concentration which gives 50% inhibition of the ALS activity in comparison with the wild-type control. It is also possible to derive the fold increase in resistance.
row,SMILES,IC50 [nM]
1,"COc1cc(Cl)nc(NC(=O)NS(=O)(=O)c2ccccc2C(=O)O)n1 [Chlorimuron, chlorimuron]",15
2,"COc1nc(C)nc(NC(=O)NS(=O)(=O)c2ccccc2Cl)n1 [Chlorsulfuron, chlorsulfuron]",65

# Same assay, conditions: Mutant 6; groups Strong, Intermediate, Weak, Zero
row,SMILES,"resistance group, Enzyme Assay"
1,"COc1cc(Cl)nc(NC(=O)NS(=O)(=O)c2ccccc2C(=O)O)n1 [Chlorimuron, chlorimuron]",Weak
2,"COc1nc(C)nc(NC(=O)NS(=O)(=O)c2ccccc2Cl)n1 [Chlorsulfuron, chlorsulfuron]",Weak

# Same assay, conditions: fold increase in resistance vs wild type, heterozygous Mutant 6; 30 min
row,SMILES,Fold Increase
1,"COc1cc(Cl)nc(NC(=O)NS(=O)(=O)c2ccccc2C(=O)O)n1 [Chlorimuron, chlorimuron]",4
2,"COc1nc(C)nc(NC(=O)NS(=O)(=O)c2ccccc2Cl)n1 [Chlorsulfuron, chlorsulfuron]",4

# Biological target: ALS enzyme extracted from Mutant 3 (heterozygous)
# Assay: ALS enzyme assay, heterozygous Mutant 3
# Format: biochemical, Zea mays
# Conditions: ALS of heterozygous Mutant 3; read-out: ID50% (the source's name)
# Protocol: as §1, §2, §3, §4, §5, §6
row,SMILES,IC50 [nM]
1,"COc1cc(Cl)nc(NC(=O)NS(=O)(=O)c2ccccc2C(=O)O)n1 [Chlorimuron, chlorimuron]",15
2,"COc1nc(C)nc(NC(=O)NS(=O)(=O)c2ccccc2Cl)n1 [Chlorsulfuron, chlorsulfuron]",35

# Same assay, conditions: Mutant 3; groups Strong, Intermediate, Weak, Zero
row,SMILES,"resistance group, Enzyme Assay"
1,"COc1cc(Cl)nc(NC(=O)NS(=O)(=O)c2ccccc2C(=O)O)n1 [Chlorimuron, chlorimuron]",Weak
2,"COc1nc(C)nc(NC(=O)NS(=O)(=O)c2ccccc2Cl)n1 [Chlorsulfuron, chlorsulfuron]",Weak

# Same assay, conditions: fold increase in resistance vs wild type, heterozygous Mutant 3; 30 min
row,SMILES,Fold Increase
1,"COc1cc(Cl)nc(NC(=O)NS(=O)(=O)c2ccccc2C(=O)O)n1 [Chlorimuron, chlorimuron]",4
2,"COc1nc(C)nc(NC(=O)NS(=O)(=O)c2ccccc2Cl)n1 [Chlorsulfuron, chlorsulfuron]",2

# Biological target: ALS enzyme extracted from Mutant 9 (heterozygous)
# Assay: ALS enzyme assay, heterozygous Mutant 9
# Format: biochemical, Zea mays
# Conditions: ALS of heterozygous Mutant 9; read-out: ID50% (the source's name)
# Protocol: as §1, §2, §3, §4, §5, §6
row,SMILES,IC50 [nM]
1,"COc1nc(C)nc(NC(=O)NS(=O)(=O)c2ccccc2Cl)n1 [Chlorsulfuron, chlorsulfuron]",50

# Same assay, conditions: Mutant 9; groups Strong, Intermediate, Weak, Zero
row,SMILES,"resistance group, Enzyme Assay"
1,"COc1cc(Cl)nc(NC(=O)NS(=O)(=O)c2ccccc2C(=O)O)n1 [Chlorimuron, chlorimuron]",Weak
2,"COc1nc(C)nc(NC(=O)NS(=O)(=O)c2ccccc2Cl)n1 [Chlorsulfuron, chlorsulfuron]",Weak

# Same assay, conditions: fold increase in resistance vs wild type, heterozygous Mutant 9; 30 min
row,SMILES,Fold Increase
1,"COc1cc(Cl)nc(NC(=O)NS(=O)(=O)c2ccccc2C(=O)O)n1 [Chlorimuron, chlorimuron]",3
2,"COc1nc(C)nc(NC(=O)NS(=O)(=O)c2ccccc2Cl)n1 [Chlorsulfuron, chlorsulfuron]",3

# Tested on: Mutant 8 plants
# Assay: Cross-resistance testing (glasshouse dose response), Mutant 8
# Format: in vivo, Zea mays
# Conditions: pre-emergence spray, assessed after four weeks growth
# Source text: (§7) The seeds used in this screen were populations of mixed tolerant and sensitive seed, segregating 1:1, derived from each of the heterogygous, tolerant mutants crossed with homozygous, sensitive UE95. All of the tolerant progeny are heterozygous for tolerance. Each of the mutants identified above were used except mutant 4. The controls were seed of self-pollinated UE95 which was pollinated in the same year as the tolerant lines.
# (§8) One litre of compost was placed in each seed tray of dimensions 19cm x 11cm x 5cm deep and firmed down flat. Two furrows 1 cm deep were drawn in the surface of the compost in each tray and six seeds were sown in each furrow (total twelve seeds per tray). Some trays were sown with 24 seeds, in which case three furrows were made and 8 seeds sown per furrow.
# (§9) In each test each tray contained either the seed of one mutant or of the UE95 control for each herbicide application rate and for the untreated control.
# (§10) Five different types of ALS-inhibitor herbicides were tested on the mutants plus imazethapyr (PURSUIT) as a comparison. Four rates of each were applied; approximately 0.1x, 0.5x, 1x and 4x the estimated field rates for each herbicide. The rates are the same for mutant 3 to 10 but higher rates for chlorimuron (CLASSIC) and lower rates for chlorsulfuron (GLEAN) were applied to mutants 1 and 2.
# (§11) The rates of application used in the screening tests were as follows: chlorimuron (CLASSIC) 4,20,40,160 g/Ha (mutants 1 and 2); and, 8,40,80,320 g/Ha (mutants 3 to 10); chlorsulfuron (GLEAN) 5,25,50,200 g/Ha (mutants 1 and 2); and, 1,5,10,40 g/Ha (mutants 3 to 10); imazaquin (SCEPTER) 30,150,300,1200 g/Ha; triazolopyrimidine 5,25,50,200 g/Ha; phenoxypyrimidine 10,50,100,400 g/Ha; and, imazethapyr (PURSUIT) 30,150,300,1200 g/Ha The triazolopyrimidine and phenoxypyrimidine were formulated in an adjuvant wetting agent known as JF5969 and diluted with water to make a final concentration of 10% JF5969. The remaining compounds were diluted with water only.
# (§12) The spray jet and parameters were as decribed above under "SCREENING". After spraying, the seeds were covered with 0.5 litre of compost and firmed down flat (2.5cm covering) and grown under the conditions described under "SCREENING" above.
# (§13) Visual assessments were made of the plants after four weeks growth. Each plant was scored on a scale of zero to 5 and the height measured from soil surface to the tallest leaf tip. The scoring scale was as follows: 0 - 0 to 10% damage (little or no herbicidal effect) 1 - 11 to 25% damage 2 - 26 to 50% damage 3 - 51 to […] 4 - 81 to 95% damage 5 - 96 to 100% damage (complete death of the plant) In carrying out these assessments, plants which were obviously of the sensitive phenotype were ignored (approximately 50% of the plants). […]
row,SMILES,"resistance group, Dose Response"
1,"COc1cc(Cl)nc(NC(=O)NS(=O)(=O)c2ccccc2C(=O)O)n1 [Chlorimuron, chlorimuron]",Zero
2,"COc1nc(C)nc(NC(=O)NS(=O)(=O)c2ccccc2Cl)n1 [Chlorsulfuron, chlorsulfuron]",Zero

# Tested on: Mutant 9 plants
# Assay: Cross-resistance testing (glasshouse dose response), Mutant 9
# Format: in vivo, Zea mays
# Conditions: pre-emergence spray, assessed after four weeks growth
# Source text: as §7, §8, §9, §10, §11, §12, §13
row,SMILES,"resistance group, Dose Response"
1,"COc1cc(Cl)nc(NC(=O)NS(=O)(=O)c2ccccc2C(=O)O)n1 [Chlorimuron, chlorimuron]",Zero
2,"COc1nc(C)nc(NC(=O)NS(=O)(=O)c2ccccc2Cl)n1 [Chlorsulfuron, chlorsulfuron]",Weak and Zero

# Biological target: ALS enzyme extracted from Mutant 5 (heterozygous)
# Assay: ALS enzyme assay, heterozygous Mutant 5
# Format: biochemical, Zea mays
# Conditions: ALS of heterozygous Mutant 5; read-out: ID50% (the source's name)
# Protocol: as §1, §2, §3, §4, §5, §6
row,SMILES,IC50 [nM]
1,"COc1cc(Cl)nc(NC(=O)NS(=O)(=O)c2ccccc2C(=O)O)n1 [Chlorimuron, chlorimuron]",17
2,"COc1nc(C)nc(NC(=O)NS(=O)(=O)c2ccccc2Cl)n1 [Chlorsulfuron, chlorsulfuron]",40

# Same assay, conditions: Mutant 5; groups Strong, Intermediate, Weak, Zero
row,SMILES,"resistance group, Enzyme Assay"
1,"COc1cc(Cl)nc(NC(=O)NS(=O)(=O)c2ccccc2C(=O)O)n1 [Chlorimuron, chlorimuron]",Weak
2,"COc1nc(C)nc(NC(=O)NS(=O)(=O)c2ccccc2Cl)n1 [Chlorsulfuron, chlorsulfuron]",Weak

# Same assay, conditions: fold increase in resistance vs wild type, heterozygous Mutant 5; 30 min
row,SMILES,Fold Increase
1,"COc1cc(Cl)nc(NC(=O)NS(=O)(=O)c2ccccc2C(=O)O)n1 [Chlorimuron, chlorimuron]",5
2,"COc1nc(C)nc(NC(=O)NS(=O)(=O)c2ccccc2Cl)n1 [Chlorsulfuron, chlorsulfuron]",2
